Experimental data as given in ChEMBL document CHEMBL1141027, “HY251, a novel cell cycle inhibitor isolated from Aralia continentalis, induces G1 phase arrest via p53-dependent pathway in HeLa cells” (2009).
Activity calls are given as the source filed them. The calls are words filed in the database; no cut-off is given here.

Tests used:
HeLa [1] = test: Cell cycle arrest in human HeLa cells assessed as accumulation at G1 phase at 100 uM treated 12 hrs after nocodazole challenge by flow cytometry; format: functional, cell-based; details: TDE = time-dependent effect
HeLa [2] = test: Cell cycle arrest in human HeLa cells assessed as accumulation at G2/M phase at 100 uM treated 12 hrs after nocodazole challenge measured after 6 hrs by flow cytometry; format: functional
HeLa [3] = test: Cell cycle arrest in human HeLa cells assessed as accumulation at G1 phase at 100 uM treated 12 hrs after nocodazole challenge measured after 6 hrs by flow cytometry; format: functional
[4] = biological target: Cyclin-dependent kinase 2 (Homo sapiens) (UniProt P24941); test: Inhibition of CDK2 in human HeLa cells by immunoprecipitation kinase assay; format: cell-based
HeLa [5] = test: Increase in hypophosphorylated pRb level in human HeLa cells at 100 uM by Western blotting; format: functional, cell-based; details: TDE = time-dependent effect
HeLa [6] = test: Increase in ataxia telangiectasia mutated gene expression in human HeLa cells after 24 hrs by RT-PCR relative to control; format: functional
HeLa [7] = test: Cell cycle arrest in human HeLa cells assessed as accumulation at G1 phase at 100 uM treated 12 hrs after nocodazole challenge measured after 12 hrs by flow cytometry; format: functional
HeLa [8] = test: Cell cycle arrest in human HeLa cells assessed as accumulation at G1 phase at 50 ng/ml after 12 hrs by flow cytometry; format: functional
[9] = biological target: Glycogen synthase kinase-3 beta (Homo sapiens) (UniProt P49841); test: Inhibition of GSK3-beta in human HeLa cells by immunoprecipitation kinase assay; format: cell-based
Sequence of Glycogen synthase kinase-3 beta (Homo sapiens) (P49841 whole entry, looked up): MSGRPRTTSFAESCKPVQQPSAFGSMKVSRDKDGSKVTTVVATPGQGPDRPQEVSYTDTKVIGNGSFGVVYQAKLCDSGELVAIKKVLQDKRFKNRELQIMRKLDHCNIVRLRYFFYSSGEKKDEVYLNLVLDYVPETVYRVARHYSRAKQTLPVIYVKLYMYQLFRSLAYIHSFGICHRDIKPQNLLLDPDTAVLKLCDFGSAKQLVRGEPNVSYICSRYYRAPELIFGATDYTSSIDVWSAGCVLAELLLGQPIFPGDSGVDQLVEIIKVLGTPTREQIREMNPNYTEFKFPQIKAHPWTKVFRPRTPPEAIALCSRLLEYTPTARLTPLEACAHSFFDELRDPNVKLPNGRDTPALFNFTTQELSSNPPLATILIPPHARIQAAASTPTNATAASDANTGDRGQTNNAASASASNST

[10] = biological target: Cyclin-dependent kinase 4 (Homo sapiens) (UniProt P11802); test: Inhibition of CDK4 in human HeLa cells by immunoprecipitation kinase assay; format: cell-based
Sequence of Cyclin-dependent kinase 4 (Homo sapiens) (P11802 whole entry): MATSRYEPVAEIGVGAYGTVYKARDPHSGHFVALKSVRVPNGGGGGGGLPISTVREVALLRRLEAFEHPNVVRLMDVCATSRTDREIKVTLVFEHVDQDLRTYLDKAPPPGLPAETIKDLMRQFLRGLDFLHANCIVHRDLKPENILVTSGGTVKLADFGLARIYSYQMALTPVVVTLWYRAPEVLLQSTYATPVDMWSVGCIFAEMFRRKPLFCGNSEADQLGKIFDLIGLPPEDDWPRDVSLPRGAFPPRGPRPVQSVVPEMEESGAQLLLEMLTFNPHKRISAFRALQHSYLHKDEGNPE

HeLa [11] = test: Cell cycle arrest in human HeLa cells assessed as accumulation at G2/M phase at 50 ng/ml after 12 hrs by flow cytometry; format: functional
HeLa [12] = test: Cell cycle arrest in human HeLa cells assessed as accumulation at G2/M phase at 100 uM treated 12 hrs after nocodazole challenge measured after 12 hrs by flow cytometry; format: functional
HeLa [13] = test: Cell cycle arrest in human HeLa cells assessed as accumulation at G2/M phase at 100 uM treated 12 hrs after nocodazole challenge measured after 24 hrs by flow cytometry; format: functional
HeLa [14] = test: Cell cycle arrest in human HeLa cells assessed as accumulation at G1 phase at 100 uM treated 12 hrs after nocodazole challenge measured after 24 hrs by flow cytometry; format: functional
HeLa [15] = test: Increase in ataxia telangiectasia mutated gene expression in human HeLa cells after 12 hrs by RT-PCR relative to control; format: functional
HeLa [16] = test: Increase in p21CIP1 level in human HeLa cells at 100 uM by Western blotting; format: functional, cell-based; details: TDE = time-dependent effect
HeLa [17] = test: Decrease in cyclin D3 expression in human HeLa cells at 100 uM by Western blotting; format: functional, cell-based; details: TDE = time-dependent effect
HeLa [18] = test: Increase in p27KIP1 level in human HeLa cells at 100 uM by Western blotting; format: functional, cell-based; details: TDE = time-dependent effect
[19] = biological target: Cellular tumor antigen p53 (Homo sapiens) (UniProt P04637); test: Increase in p53-Ser15 phosphorylation in human HeLa cells at 100 uM by Western blotting; format: cell-based
Sequence of Cellular tumor antigen p53 (Homo sapiens) (P04637 whole entry, looked up): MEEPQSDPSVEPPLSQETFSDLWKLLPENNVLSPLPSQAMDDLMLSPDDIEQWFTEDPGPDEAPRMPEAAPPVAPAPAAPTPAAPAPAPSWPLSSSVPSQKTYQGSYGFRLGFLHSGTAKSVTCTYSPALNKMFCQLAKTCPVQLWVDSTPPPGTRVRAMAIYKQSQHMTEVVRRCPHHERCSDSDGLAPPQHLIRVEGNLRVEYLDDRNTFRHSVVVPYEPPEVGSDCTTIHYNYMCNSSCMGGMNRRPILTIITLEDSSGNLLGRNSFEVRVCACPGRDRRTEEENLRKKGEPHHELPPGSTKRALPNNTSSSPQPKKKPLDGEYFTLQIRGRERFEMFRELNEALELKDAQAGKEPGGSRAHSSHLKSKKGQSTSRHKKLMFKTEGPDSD

With `C=CC1CC2(O)CC3(O)CCC=CC3C2(O)C1(O)CCC` (centres undefined) the Activity (HeLa [1]) was “tde”, the Activity (HeLa [2]) was 37% and the Activity (HeLa [3]) was 35%. For the same molecule, the Activity [4] was “inactive”, the Activity (HeLa [5]) was “tde” and the “fold change (FC)” value (HeLa [6]) was 3.8. For the same molecule, the Activity (HeLa [7]) was 48%, the Activity (HeLa [8]) was 4% and the Activity [9] was “inactive”. The Activity [10] was “inactive”, the Activity (HeLa [11]) was 68% and the Activity (HeLa [12]) was 21%. The Activity (HeLa [13]) was 11%, the Activity (HeLa [14]) was 52% and the “fold change (FC)” value (HeLa [15]) was 3.1. The Activity (HeLa [16]) was “tde”, the Activity (HeLa [17]) was “tde” and the Activity (HeLa [18]) was “tde”. The Activity [19] was “Active”.
